# The supplement of paper PMC10307832
# Experiments:
# Assay in all cases: relative viability (nuclei count vs DMSO), 5 days (fraction); higher = more cells survive
# [1] = compound: COc1ccc(-c2ccc3c(N4CCOC[C@@H]4C)nc(N4CCOC[C@@H]4C)nc3n2)cc1CO [AZD8055] + CS(=O)(=O)N1CCN(Cc2cc3nc(-c4cccc5[nH]ncc45)nc(N4CCOCC4)c3s2)CC1 [Pictilisib] (partner 1 µM)
# Summary of the method: (§1)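 For relative viability, nuclei counts in treated wells were divided by those in vehicle wells. Lung cancer cell lines had been pin-tool dosed in 1536-well plates the day after seeding and cultured for 5 days, then fixed and stained in one step (final 0.05% Triton X-100, 1% formaldehyde, 1 ug/ml Hoechst) and imaged at 4×. Doses were one drug alone or a fixed anchor-drug dose plus five library-drug doses (not always all listed) in √10 steps, and values are duplicate-plate medians.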
# [2] = compound: COc1ccc(-c2ccc3c(N4CCOC[C@@H]4C)nc(N4CCOC[C@@H]4C)nc3n2)cc1CO [AZD8055] + CCNC(=O)c1noc(-c2cc(C(C)C)c(O)cc2O)c1-c1ccc(CN2CCOCC2)cc1 [Luminespib] (partner 0.01 µM)
# Summary of the method: as §1
# [3] = compound: COc1ccc(-c2ccc3c(N4CCOC[C@@H]4C)nc(N4CCOC[C@@H]4C)nc3n2)cc1CO [AZD8055] + COc1cccc2cc(-c3nc([C@H]4CC[C@H](C(=O)O)CC4)n4ncnc(N)c34)[nH]c12 [OSI-027] (partner 0.5 µM)
# Summary of the method: as §1
# [4] = compound: COc1ccc(-c2ccc3c(N4CCOC[C@@H]4C)nc(N4CCOC[C@@H]4C)nc3n2)cc1CO [AZD8055] + CC(=O)c1c(C)c2cnc(Nc3ccc(N4CCNCC4)cn3)nc2n(C2CCCC2)c1=O [Palbociclib] (partner 0.5 µM)
# Summary of the method: as §1
Cell Line,relative viability ([1]; first compound 0.01 µM),relative viability ([1]; first compound 0.03162 µM),relative viability ([1]; first compound 0.1 µM),relative viability ([1]; first compound 0.3162 µM),relative viability ([1]; first compound 1 µM),relative viability ([2]; first compound 0.01 µM),relative viability ([2]; first compound 0.03162 µM),relative viability ([2]; first compound 0.1 µM),relative viability ([2]; first compound 0.3162 µM),relative viability ([2]; first compound 1 µM),relative viability ([3]; first compound 0.01 µM),relative viability ([3]; first compound 0.03162 µM),relative viability ([3]; first compound 0.1 µM),relative viability ([3]; first compound 0.3162 µM),relative viability ([3]; first compound 1 µM),relative viability ([4]; first compound 0.01 µM),relative viability ([4]; first compound 0.03162 µM),relative viability ([4]; first compound 0.1 µM),relative viability ([4]; first compound 0.3162 µM),relative viability ([4]; first compound 1 µM)
NCI-H2126,0.478,0.52,0.385,0.362,0.415,0.921,0.884,0.484,0.308,0.312,0.762,0.743,0.717,0.528,0.449,0.323,0.329,0.362,0.284,0.323
HCC-44,0.447,0.396,0.376,0.267,0.347,1.03,0.974,0.804,0.439,0.429,0.6,0.526,0.483,0.267,0.308,0.949,0.936,0.949,0.925,0.867
NCI-H460,0.338,0.295,0.262,0.226,0.264,0.03,0.029,0.0182,0.0223,0.0329,0.85,0.47,0.506,0.141,0.124,0.154,0.108,0.0839,0.0295,0.0277
SK-LU-1,0.525,0.395,0.327,0.28,0.298,0.205,0.185,0.159,0.145,0.154,0.354,0.372,0.337,0.289,0.242,0.401,0.32,0.288,0.299,0.261
NCI-H322M,0.46,0.463,0.436,0.444,0.422,0.797,0.597,0.357,0.348,0.289,0.56,0.602,0.582,0.476,0.431,0.457,0.492,0.383,0.468,0.41
EKVX,0.485,0.44,0.3,0.245,0.169,0.949,0.866,0.655,0.355,0.248,0.753,0.745,0.665,0.51,0.411,0.466,0.365,0.278,0.211,0.173
NCI-H1734,0.427,0.312,0.295,0.175,0.199,0.199,0.167,0.194,0.151,0.183,0.665,0.553,0.493,0.319,0.225,0.378,0.386,0.288,0.215,0.192
ABC-1,0.78,0.659,0.556,0.438,0.334,0.434,0.521,0.289,0.331,0.284,0.537,0.551,0.635,0.345,0.36,0.915,0.54,0.483,0.503,0.47
NCI-H520,0.301,0.19,0.202,0.163,0.159,0.239,0.228,0.171,0.183,0.16,0.236,0.254,0.188,0.184,0.16,0.167,0.15,0.156,0.141,0.161
EPLC-272H,0.339,0.307,0.23,0.261,0.212,0.182,0.12,0.178,0.22,0.182,0.252,0.255,0.28,0.228,0.243,0.319,0.303,0.309,0.27,0.219
UMC-11,0.905,0.604,0.503,0.272,0.254,1,0.659,0.477,0.229,0.268,0.494,0.452,0.367,0.302,0.284,0.341,0.32,0.299,0.295,0.288
NCI-H1792,0.235,0.229,0.142,0.112,0.094,0.38,0.415,0.218,0.295,0.127,0.799,0.674,0.574,0.431,0.26,0.677,0.585,0.417,0.359,0.307
NCI-H1993,0.752,0.701,0.892,0.637,0.896,0.74,0.593,0.497,0.402,0.471,0.545,0.502,0.625,0.353,0.568,0.596,0.47,0.39,0.408,0.404
NCI-H1793,0.288,0.268,0.177,0.238,0.156,0.151,0.156,0.146,0.132,0.149,0.291,0.215,0.196,0.18,0.202,0.216,0.218,0.163,0.22,0.211
NCI-H1395,0.587,0.535,0.636,0.478,0.425,0.669,0.379,0.684,0.445,0.36,0.657,0.618,0.535,0.443,0.422,0.604,0.526,0.547,0.44,0.45
HCC-827,1.1,0.875,0.741,0.495,0.477,0.6,0.336,0.308,0.319,0.13,0.798,0.746,0.809,0.604,0.641,0.482,0.406,0.381,0.227,0.181

Cell Line,relative viability ([1]; first compound 0.01 µM),relative viability ([1]; first compound 0.03162 µM),relative viability ([1]; first compound 0.1 µM),relative viability ([1]; first compound 0.3162 µM),relative viability ([1]; first compound 1 µM),relative viability ([2]; first compound 0.01 µM),relative viability ([2]; first compound 0.03162 µM),relative viability ([2]; first compound 0.1 µM),relative viability ([2]; first compound 0.3162 µM),relative viability ([2]; first compound 1 µM),relative viability ([3]; first compound 0.01 µM),relative viability ([3]; first compound 0.03162 µM),relative viability ([3]; first compound 0.1 µM),relative viability ([3]; first compound 0.3162 µM),relative viability ([3]; first compound 1 µM),relative viability ([4]; first compound 0.01 µM),relative viability ([4]; first compound 0.03162 µM),relative viability ([4]; first compound 0.1 µM),relative viability ([4]; first compound 0.3162 µM),relative viability ([4]; first compound 1 µM)
ChaGo-K-1,0.817,0.848,0.801,0.49,0.346,0.611,0.604,0.533,0.423,0.297,0.584,0.576,0.624,0.56,0.541,1.01,0.87,0.864,0.728,0.652
NCI-H2228,0.244,0.273,0.159,0.263,0.287,0.137,0.11,0.104,0.15,0.144,0.548,0.446,0.281,0.176,0.234,0.696,0.477,0.388,0.168,0.166
NCI-H2170,0.273,0.255,0.213,0.222,0.23,0.633,0.715,0.403,0.233,0.165,0.665,0.701,0.624,0.386,0.392,0.331,0.314,0.233,0.173,0.143
EMC-BAC-2,0.511,0.494,0.475,0.279,0.286,1.18,1.05,0.867,0.534,0.403,0.364,0.387,0.358,0.291,0.284,0.477,0.437,0.376,0.31,0.29
NCI-H23,0.472,0.314,0.314,0.251,0.293,0.193,0.216,0.208,0.229,0.297,0.673,0.555,0.626,0.426,0.323,0.439,0.367,0.295,0.193,0.187
RERF-LC-KJ,0.566,0.452,0.426,0.309,0.289,1.19,1.14,0.853,0.475,0.473,0.587,0.671,0.522,0.387,0.362,1.11,1.09,0.779,0.441,0.412
NCI-H358,0.334,0.301,0.233,0.222,0.245,0.33,0.336,0.392,0.123,0.0919,0.871,0.708,0.576,0.29,0.164,0.143,0.137,0.135,0.115,0.101
LC-2-ad,0.464,0.458,0.322,0.339,0.255,1.25,0.969,1.03,0.537,0.548,0.937,0.864,0.706,0.618,0.523,0.534,0.471,0.438,0.388,0.312
HCC-15,0.806,0.685,0.631,0.369,0.338,0.304,0.39,0.262,0.208,0.242,0.805,0.732,0.658,0.38,0.303,0.858,0.687,0.667,0.369,0.275
NCI-H2405,0.503,0.398,0.316,0.182,0.223,0.757,0.564,0.536,0.289,0.279,0.664,0.697,0.56,0.43,0.385,0.51,0.47,0.384,0.336,0.295
LXF-289,0.83,0.673,0.556,0.411,0.454,0.715,0.599,0.623,0.309,0.32,0.891,0.899,0.727,0.693,0.625,0.621,0.581,0.578,0.3,0.23
CAL-12T,0.393,0.341,0.349,0.322,0.213,0.321,0.203,0.131,0.152,0.139,0.717,0.738,0.614,0.208,0.26,0.353,0.399,0.171,0.163,0.191
COR-L23,0.95,0.478,0.35,0.16,0.17,0.773,0.625,0.381,0.118,0.137,0.765,0.588,0.526,0.297,0.256,0.319,0.226,0.199,0.126,0.124
NCI-H1755,0.39,0.312,0.274,0.253,0.271,0.43,0.417,0.361,0.263,0.251,0.752,0.698,0.649,0.544,0.537,0.42,0.44,0.388,0.368,0.359
NCI-H1437,0.394,0.225,0.223,0.124,0.127,1.28,1.26,1.23,0.775,0.365,0.973,0.88,0.753,0.354,0.389,0.358,0.434,0.338,0.221,0.203
NCI-H2085,0.458,0.394,0.347,0.319,0.346,0.447,0.387,0.294,0.21,0.281,0.744,0.852,0.551,0.34,0.355,0.493,0.448,0.386,0.37,0.3
